We go through two compounds from patent US20200396997A1, “A STABLE AGROCHEMICAL COMPOSITION” (priority 2018, published 2020).

Each structure is given as a SMILES string.

Common to all, as to type: physicochemical
A short description of data set [1]: Comparative study of compositions with end-capped vs non-end capped EO/PO block polymer (7 and 14 days AHS). As to the method:
Comparative Study of the Compositions with EO/PO Block Copolymer End-Capped with Methyl Group and Non-End Capped EO/PO Block Polymer
The composition described in Example-1 (having EO/PO block copolymer end-capped with methyl group) prepared according to the process disclosed in the present invention was tested against the composition described in Example-3 (having non-alkyl end-capped EO/PO block copolymer). The objective of study was to determine the effect EO/PO block copolymer end-capped with alkyl group in preventing degradation of active ingredients and to impart overall stability to the composition.

Data set [2] can be described thus: Stability of active ingredients in real time study (19 months ambient). Particulars: composition of Example-2. The text has this: Stability of Active Ingredients Observed in Real Time Study
The composition prepared in Example-2 according to the process disclosed in the present invention is kept for real time study to observe degradation pattern of active ingredients. The composition was kept for 19 months in ambient conditions. Acetamiprid and Acephate found to be very stable with 3.5% and 2.31% degradation respectively. This resulted into an overall stable agrochemical composition.

Data set [3] can be described thus: Stability study of active ingredients in various storage conditions (unpacked / water soluble pouch). As to conditions: composition of Example-1; for % Degradation: 14 days AHS at 54° C. vs ambient; for 14 D AHS / AMB: content of active; for 14 D AHS: 14 days AHS at 54° C.; for AMB: ambient. As to the method: Stability Study of Active Ingredients in Various Storage Conditions
The composition described in Example-1 prepared according to the process disclosed in the present invention was tested to determine the stability of active ingredients when subjected to various storage conditions. Degradation of active ingredients was calculated at ambient conditions and in 14 days AHS at 54° C. for the composition kept as unpacked and as packed in water soluble pouch. Acetamiprid and Acephate both found to be stable in unpacked as well as when packed in the water soluble pouch.

Data set [4] can be described thus: Study of chloronicotinyl compositions with and without EO/PO block copolymer end-capped with methyl group (7 and 14 days AHS). On the procedure: Study of Chloronicotinyl Compositions Having EO/PO Block Copolymer End-Capped with Methyl Group and without Having EO/PO Block Polymer End-Capped with Methyl Group
The composition described in Example-4 (having EO/PO block copolymer end-capped with methyl group) prepared according to the process disclosed in the present invention was tested against the composition described in Example-7 (having no EO/PO block copolymer). The objective of study was to determine the effect of EO/PO block copolymer end-capped with alkyl group on chloronicotinyl compounds in preventing degradation of the compositions as well as the overall stability to the compositions.

Setting [5] is: 19 months in ambient conditions.

Regarding `COP(=O)(NC(C)=O)SC` (centres unmarked) [Acephate, N-(Methoxy-methylsulfanylphosphoryl) acetamide], the Degradation observed in data set [1] (7 days AHS, active in composition comprising EO/PO block copolymer end-capped with methyl group (Example-1)) is recorded as 0.64%; in data set [1] (7 days AHS, active in composition comprising non end-capped EO/PO block copolymer (Example-3)) it was 1.5%; in data set [1] (14 days AHS, active in composition comprising EO/PO block copolymer end-capped with methyl group (Example-1)) it was 1.02%; in data set [1] (14 days AHS, active in composition comprising non end-capped EO/PO block copolymer (Example-3)), 1.92%. Also, the degradation is on record as 3.50 in data set [2] (19 Month Real Time) and 2.31% in data set [2] (setting [5]). The “stability of active (in words)” value was “very stable” in data set [2] (setting [5]) and “stable” in data set [3] (unpacked as well as packed in the water soluble pouch). The “19 Month Real Time” value in data set [2] (content of active, 19 months in ambient conditions) was determined as 85.03. Also, the Ambient in data set [2] (content of active, start) is reported as 88.11. The “% Degradation” value in data set [3] (Packed in Water Soluble Pouch) came out at 1.29%; in data set [3] (Without Packing), 0.75%. The “14 D AHS” value in data set [3] (Packed in Water Soluble Pouch) turned out to be 87.13; in data set [3] (Without Packing), 87.81. For the same compound, the AMB in data set [3] (Packed in Water Soluble Pouch) and in data set [3] (Without Packing) was 88.59 in each case.
On to `N#C/N=C1\SCCN1Cc1ccc(Cl)nc1` [Thiacloprid], for which the Degradation observed in data set [4] (7 days AHS, active in composition comprising EO/PO block copolymer end-capped with methyl group (Example-4)) came out at 0.58%; in data set [4] (7 days AHS, active in composition prepared without using end-capped EO/PO block copolymer (Example-7)), 5.1%; in data set [4] (14 days AHS, active in composition comprising EO/PO block copolymer end-capped with methyl group (Example-4)) it was 0.93%; in data set [4] (14 days AHS, active in composition prepared without using end-capped EO/PO block copolymer (Example-7)), 7.91%.
